This experiment is described as follows: anaesthetic effect (onset and duration) of gel composition administered through the urethra. The class given is in vivo. The conditions noted are these: gel compositions comprising the anaesthetic.

Structures are written as SMILES.

`CCN(CC)CC(=O)Nc1c(C)cccc1C` [lidocaine]: the duration of action fell in the range of 15 to 20 min.

On to `CCCCN1CCCCC1C(=O)Nc1c(C)cccc1C` (centres unmarked) [bupivacaine], for which the duration of action result is recorded as “up to 7 hours” and the onset of action was 7 to 10 min.

`CCCN1CCCC[C@H]1C(=O)Nc1c(C)cccc1C` [ropivacaine] returned a duration of action of 120 to 600 min and an onset of action of 10 to 20 min.

The values above are taken from patent US12290512B2, “Gel composition with an anaesthetic effect of short and long term duration” (priority 2018, dated 2025).
